# Measurements from patent publication US20220387368A1, “AN INHIBITOR OF AN IRON-CONTAINING HYDROGENASE OF A METHANOGENIC ARCHAEON FOR USE IN THE TREATMENT OR PREVENTION OF A PARKINSONIAN CONDITION” (UNIVERSITE DU LUXEMBOURG, priority 2019, published 2022).
# Key:
# [1] = system: HiTox strains of yeast expressing human alpha-synuclein; test: Yeast growth toxicity assay, HiTox strain; format: cell-based
# Method: (§1) Yeast cells were grown in synthetic complement (SC) media containing 6.7 g/L yeast nitrogen base without amino acids, 5 g/L ammonium sulfate supplemented with 2 g/L SC. Media was autoclaved and the carbon source (8% raffinose or galactose) was added to a final concentration of 2%.
# (§2) Four fresh single colonies of the Hitox strain and its respective control strain were inoculated from SC-2% glucose plates into 5 mL SC-2% raffinose and incubated overnight with shaking (200 rpm) at 30° C. After ≈20 h, overnight cultures were diluted to OD 0.5 and 2 μL of the yeast cultivation was added to 78 μL drug containing media to a final optical density of 0.0125 in a 384-well microplate. 2-HP was diluted in SC-2% raffinose/galactose and tested at different concentrations (1-100 mM). Finally, the plates are measured in a microplate reader (TECAN™ Infinite M200Pro), at an interval of 10 minutes during 72 h at 30° C. Yeast growth phenotyping was performed as previous described (Jung et al. 2015). Final biomass was corrected using the GATHODE software (Jung et al., 2015). The OD600 at 48 h was taken for the quantification.
# [2] = system: control strain; test: Yeast growth toxicity assay, control strain; format: cell-based
# Method: as §1, §2
# [3] = system: enteric neurons; test: Enteric neuron cell viability (MTT) assay; format: cell-based; details: 24 h treatment, MTT (FIG. 5)
# Method: Enteric neurons were cultured in differentiation medium, consisting on Neurobasal (Invitrogen, 21103049) supplemented with 1:200 N2 (Invitrogen, 17502048), 1:100 L-Glutamine (Invitrogen, 25030-024), 1:100 B-27 without Vitamin A (Life Technologies, 12587-010), 1:100 Penicillin/Streptomycin (Invitrogen, 15140122), 25 ng/mL GDNF (Peprotech, 450-10) and 100 μM Ascorbic Acid (Sigma, A5960). Cells were cultured for 21 days in a 6-well plate, then detached with Accutase (Sigma, A6964), and replated into a 96-well plate. Cells were maintained under differentiating conditions until day 31, when they were treated with increasing concentrations of 2-hydroxypyridine (Sigma, H56800). Tested concentrations were as follows: 1 μM, 3 μM, 6 μM, 10 μM, 30 μM, 60 μM, 100 μM, 300 μM, 600 μM, 1 mM and 3 mM.
# 2-Hydroxypyridine was reconstituted to 10 mM in the differentiation medium described above.
# Cells were treated for 24 h, then cell viability was assessed performing a Tetrazolium (MTT) assay. Thiazolyl Blue tetrazolium Bromide (Sigma, M5655) was reconstituted to a 5 mg/mL solution in differentiation media and filtered. 10 μL of the solution were then added to every well containing 100 μL of media. Plate was incubated for 2 h in a normal incubator (37° C., 5% CO2). […] Cells were disaggregated by pipetting vigorously and absorbance was read at 570 nm, using the microplate Cytation 5M reader (Biotek).
# [4] = target: T1, alpha-synuclein (Homo sapiens, UniProt P37840); test: Alpha-synuclein aggregation; details: in contact with alpha-synuclein
# T1 construct: expressed in transfected cells; host or cells: HiTox yeast strains, galactose-inducible expression
# Method: The aggregation of alpha-synuclein is the key molecular hallmark of PD.
# The following abbreviations have the meaning given in brackets: α-Syn (alpha-synuclein), α-Syn-F (fibrillary alpha-synuclein, i.e. alpha-synuclein aggregations), Hoechst (DNA staining), TUJ1 (general neuronal marker), TH (tyrosine hydroxylase) and CC3 (cleaved caspase 3 staining, i.e. cell death marker, showing toxicity).
# Cells fixed in 4% paraformaldehyde (Merck Millipore, 1004965000) for 15 min at RT and then washed 3× for 5 min with PBS at RT. Prior to immunostaining, a permeabilization step was performed using 0.05% Triton-X100 solution in PBS for 10 min at 4° C. Cells were then blocked for 1 h at RT with 10% FBS in PBS. Incubation with α-synuclein antibody (NOVUS biologicals, NBP1-05194, 1:1000), α-synuclein filament antibody (Abcam, ab20953, 1:5000) and TUJ1 (Millipore, AB9354, 1:600) was done overnight at 4° C. in blocking buffer. The following day, cells were washed with PBS 3× for 5 min at RT. Then, incubation with the corresponding secondary antibodies, Alexa Fluor anti-chicken 488 (Invitrogen, A-11039, 1:1000), Alexa Fluor anti-mouse IgG1 647 (Invitrogen, A-21240, 1:1000) and Alexa Fluor anti-rabbit 568 (Invitrogen, A11036, 1:1000) was performed for 2 h at RT in blocking buffer. Hoechst 33342 solution (Invitrogen, 62249, 1:1000) was added during this step to stain the nuclei. […]
# [5] = system: IL-1b mRNA expression; test: IL-1b mRNA expression (qPCR) in murine BMDM model; format: cell-based; details: 10 mM 2-HP, normalized to β-actin, relative to 0 mM
# Method: The inventors have tested whether 2-HP can act as signal 1 in the activation of the NLRP3 inflammasome in murine bone-barrow derived macrophages (BMDMs). NLRP3 inflammasome activation is thought to play a role in the pathogenesis of neurodegenerative disorders, and increased levels of this inflammasome and of the related cytokine IL-1b have been detected in Parkinson's patients (Guan & Han, 2020). In these experiments, the cells were grown in BMDM growth media and treated with 2-hydroxypyridine (2.5 and 10 mM) for up to 72 hours. Inflammasome activation was evaluated with qPCR for IL-1b expression (normalized to β-actin), considering the fold change relative to 0 mM 2-HP of each time point. There was a 3.2-fold increase in IL-1b mRNA after 3 hours of 10 mM 2-HP treatment, and 1.5-fold increase after 24 hours (FIG. 8).
# [6] = system: wildtype mice; test: Adhesive removal test after injection into the brain; format: in vivo; details: higher 2-HP concentrations, 15 days post-injection, vs PBS
# Method: The in vivo work testing for effects of 2-HP in a mouse model lead to results from a small-scale 15-day experiment. In this experiment, 2-HP was injected at several concentrations (5, 50 and 100 mM) into the brain of transgenic mice overexpressing human alpha-synuclein, and of wildtype control mice.
# [7] = system: transgenic mice (Thy1-Syn14 males); details: mouse, in vivo
# Method: Newly formed oligomeric forms are then propagated to the CNS via the vagus nerve.
# To control toxicity and set an upper threshold level for the chronic exposure study, the ideal concentration in the animals' drinking water (ad libitum) is determined by testing three different concentrations. As reference, the LD50 value determined in rats is used as a threshold for an entire day. The animals, of an average weight of 28 g, take in […] of 2-HP per day. The second factor to account for is the volume of water a C57BI6/j mouse drinks per day, which varies between 5 mL and 8 mL. With an […] water intake per day, the maximum concentration the inventors use is 695 μg/mL of dissolved 2-HP. However, lower doses are aimed for:
# These 3 doses are tested on a total of 48 animals. 24 wild-type and 24 transgenic animals are distributed amongst 12 groups. It is essential to have both genotypes in the study, since it cannot be foreseen how human wild-type alpha-synuclein and 2-HP interact in an in vivo model. Further, short-term and long-term effects are analysed. Additionally, this allows to proceed with the post-mortem analysis of the 14 days cohort, allowing to gather information of the early effects of 2-HP on an in vivo system. The following design is used:
# In the in-life phase, all animals are checked regularly. Overall behavior in the cage is checked daily. […]
# [8] = system: rats; details: oral administration; cited from earlier work
# [9] = control, higher concentration of 2-HP (FIG. 3C)
smiles,measurement,setting,value
"Oc1ccccn1 [2-HP, 2-hydroxypyridine]",dose at which selectively toxic to transgenic alpha-synuclein expressing yeast,[1]; HiTox strains of yeast expressing human alpha-synuclein,1 mM
same,"toxicity (growth), alpha-synuclein induced","[1]; in presence of galactose, HiTox strains (FIG. 3B)",A toxic dose-response can be observed in the HiTox strains
same,"toxicity (growth), alpha-synuclein not induced",[1]; in presence of raffinose (FIG. 3A),A toxic dose-response can be observed
same,lag time of growth curve,[2]; [9],prolonged
same,yield of growth curve,[2]; [9],unaffected
same,"toxicity (growth), control strain","[2]; in presence of galactose, control strain (FIG. 3B)",not in the control strain
same,LD50,[3],around 3 mM
same,effect on alpha-synuclein aggregation,[4],promotes aggregation
same,increase in IL-1b mRNA,[5]; 3 hours,3.2 fold
same,increase in IL-1b mRNA,[5]; 24 hours,1.5 fold
same,performance in adhesive removal test (sensorimotor function),[6],perform worse
same,alpha-synuclein in ENS,[7],increased accumulation up to aggregation of alpha-synuclein
same,motor symptoms and PD-like pathology,[7],exacerbation of motor symptoms
same,LD50,[8],124 mg/kg
